Molecules are shown by their SMILES. A value given as a limit tells only on which side of the number the result lay.

Assay [1] deals with LNCaP. The experiment in a line: Antiproliferative activity against human LNCAP cells assessed as reduction in cell viability at 10 uM measured after 6 days by CellTiterGlo assay relative to control. To be noted: Homo sapiens, LNCaP, time 6 day. It counts as functional.
Assay [2] has as its system LNCaP. Nature of the assay: cells. To be noted: Homo sapiens.
Description: Antiproliferative activity against human LNCAP cells assessed as reduction in cell viability measured after 6 days by CellTiter-Glo assay

Take `C[C@]12CC[C@H](NC(=O)c3cscn3)CC1=CC[C@@H]1[C@@H]2CC[C@]2(C)C(n3cnc4ccccc43)=CC[C@@H]12`: the inhibition (usually the drop in the measured response relative to a control, in per cent) at 10 µM in the assay with LNCaP [1] turned out to be 63.2%. Also, the IC50 (as a rule, the midpoint of a concentration-inhibition curve) in the assay on LNCaP [2] turned out to be 978 nM.

As to `C[C@]12CC[C@H](NC(=O)c3ccncc3)CC1=CC[C@@H]1[C@@H]2CC[C@]2(C)C(c3cncc(F)c3)=CC[C@@H]12`, in the assay on LNCaP [1], the inhibition at 10 µM was determined as 104%. For the same compound, in the assay on LNCaP [2], the IC50 was determined as 1010 nM.

`C[C@]12CC[C@H](NC(=O)c3ccnnc3)CC1=CC[C@@H]1[C@@H]2CC[C@]2(C)C(c3cncc(F)c3)=CC[C@@H]12`: in the assay with LNCaP [1], the inhibition at 10 µM was 100%. The IC50 with LNCaP [2] was 2210 nM.

Take `Cn1cncc1S(=O)(=O)N[C@H]1CC[C@@]2(C)C(=CC[C@@H]3[C@@H]2CC[C@]2(C)C(n4cnc5ccccc54)=CC[C@@H]32)C1`: the inhibition at 10 µM with LNCaP [1] turned out to be 100%. The IC50 with LNCaP [2] was 7200 nM.

For the compound `Cc1noc(C)c1S(=O)(=O)N[C@H]1CC[C@@]2(C)C(=CC[C@@H]3[C@@H]2CC[C@]2(C)C(n4cnc5ccccc54)=CC[C@@H]32)C1`, the inhibition at 10 µM in the assay with LNCaP [1] was 100%. This compound also came in with an IC50 in the assay on LNCaP [2] of 2260 nM.

With `C[C@]12CC[C@H](NC(=O)c3cccnc3)CC1=CC[C@@H]1[C@@H]2CC[C@]2(C)C(n3ccnn3)=CC[C@@H]12`, in the assay on LNCaP [1], the inhibition at 10 µM was found to be 76.2%. Besides, the IC50 in the assay with LNCaP [2] was 1390 nM.

Take `C[C@]12CC[C@H](O)C[C@@H]1[C@H](Oc1ccncn1)C[C@@H]1[C@@H]2CC[C@]2(C)C(c3cccnc3)=CC[C@@H]12`: the inhibition at 10 µM in the assay with LNCaP [1] turned out to be 91.3%. The IC50 in the assay on LNCaP [2] is 3160 nM.

Consider `COc1cncc(C2=CC[C@H]3[C@@H]4CC=C5C[C@@H](NC(=O)c6cccnc6)CC[C@]5(C)[C@H]4CC[C@]23C)c1`, for which the concentration for half-maximal inhibition (IC50) with LNCaP [2] is greater than 10000 nM.

For the compound `C[C@]12CC[C@H](O)C[C@@H]1[C@H](NS(=O)(=O)c1cccnc1)C[C@@H]1[C@@H]2CC[C@]2(C)C(c3cccnc3)=CC[C@@H]12`, in the assay on LNCaP [1], the inhibition at 10 µM came out at 100%. For the same compound, inhibition in the assay on LNCaP [2] was half-maximal at 5430 nM (IC50).

Consider `C[C@]12CC[C@H](NS(=O)(=O)c3cccnc3)CC1=CC[C@@H]1[C@@H]2CC[C@]2(C)C(n3cnc4ccccc43)=CC[C@@H]12`, for which, in the assay on LNCaP [1], the inhibition at 10 µM worked out at 93.3%. For the same compound, the midpoint of inhibition in the assay on LNCaP [2], the IC50, lay at 1640 nM.

The compound `C[C@]12CC[C@H](NC(=O)c3cccnn3)CC1=CC[C@@H]1[C@@H]2CC[C@]2(C)C(n3cnc4ccccc43)=CC[C@@H]12` showed an IC50 with LNCaP [2] of 2250 nM.

`C[C@]12CC[C@H](NCc3ccncc3)CC1=CC[C@@H]1[C@@H]2CC[C@]2(C)C(n3cnc4ccccc43)=CC[C@@H]12`: the inhibition at 10 µM in the assay with LNCaP [1] came to 111%. The compound further yielded an IC50 with LNCaP [2] of 2380 nM.

Consider `Cc1cncc(C2=CC[C@H]3[C@@H]4CC=C5C[C@@H](NC(=O)c6cccnc6)CC[C@]5(C)[C@H]4CC[C@]23C)c1`, for which the inhibition at 10 µM in the assay on LNCaP [1] is 90.3%. For the same compound, half-maximal inhibition with LNCaP [2] (IC50) required 2430 nM.

On to `C[C@]12CC[C@H](NC(=O)c3cocn3)CC1=CC[C@@H]1[C@@H]2CC[C@]2(C)C(n3cnc4ccccc43)=CC[C@@H]12`, for which, in the assay with LNCaP [1], the inhibition at 10 µM amounted to 95.2%. Besides, the IC50 in the assay with LNCaP [2] was determined as 2230 nM.

On to `CO/N=C1\C[C@@H]2[C@H](CC[C@]3(C)C(c4cccnc4)=CC[C@@H]23)[C@@]2(C)CC[C@H](O)C[C@H]12`, for which, in the assay with LNCaP [1], the inhibition at 10 µM was 100%. Further, the IC50 in the assay with LNCaP [2] turned out to be 8120 nM.

Regarding `C[C@]12CC[C@H](O)C[C@@H]1[C@H](CO)C[C@@H]1[C@@H]2CC[C@]2(C)C(c3cccnc3)=CC[C@@H]12`, the inhibition at 10 µM with LNCaP [1] was determined as 88.5%. For the same compound, half-maximal inhibition with LNCaP [2] (IC50) required 2830 nM.

In the assay on LNCaP [2], `C[C@]12CC[C@H](O)C[C@@H]1[C@H](NS(C)(=O)=O)C[C@@H]1[C@@H]2CC[C@]2(C)C(c3cccnc3)=CC[C@@H]12` showed an IC50 greater than 10000 nM.

In the assay with LNCaP [2], `C[C@]12CC[C@H](NC(=O)c3cccnc3)CC1=CC[C@@H]1[C@@H]2CC[C@]2(C)C(c3cncnc3)=CC[C@@H]12` gave an IC50 greater than 10000 nM.

The record behind these values is ChEMBL document CHEMBL5113526, “Design, Synthesis, and Biological Evaluation of Androgen Receptor Degrading and Antagonizing Bifunctional Steroidal Analogs for the Treatment of Advanced Prostate Cancer” (J Med Chem, 2022).
